# Experimental data published in PubChem BioAssay AID1259411 (Chemical Carcinogenesis Research Information System (CCRIS), 2018).
# Calls of active or inactive are those of the source. No rule for the calls is given here.
# Test system: rodent carcinogenicity bioassays, tumor incidence
# Assay: CCRIS carcinogenicity studies
# Procedure, shortened: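 NCI-built, expert-reviewed records of carcinogenicity and related test outcomes (mutagenicity, tumor promotion/inhibition) compiled from published and report sources, historical span 1985-2011, not updated.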
smiles,measurement,setting,value
Cc1cc(Cl)ccc1N,carcinogen call,"Species: MOUSE, Strain/Sex: B6C3F1/FEMALE, Route: ORAL, Dose: 0, 1250, 5000 PPM IN DIET, Dose: 0, 1250, 5000 PPM IN DIET, Tumor Site: Type of Lesion: BLOOD VESSELS: HEMANGIOMA OR HEMANGIOSARCOMA",active; positive
same,carcinogen call,"Species: MOUSE, Strain/Sex: B6C3F1/MALE, Route: ORAL, Dose: 0, 3750, 15000 PPM IN DIET, Dose: 0, 3750, 15000 PPM IN DIET, Tumor Site: Type of Lesion: BLOOD VESSELS: HEMANGIOMA OR HEMANGIOSARCOMA",active; positive
same,carcinogen call,"Species: RAT, Strain/Sex: F344/FEMALE, Route: ORAL, Dose: 0, 1250, 5000 PPM IN DIET, Dose: 0, 1250, 5000 PPM IN DIET",inactive; negative
same,carcinogen call,"Species: RAT, Strain/Sex: F344/MALE, Route: ORAL, Dose: 0, 1250, 5000 PPM IN DIET, Dose: 0, 1250, 5000 PPM IN DIET",inactive; negative
[CH3][Hg][O]C(C)=O,carcinogen call,"Species: MOUSE, Strain/Sex: SWISS/FEMALE, Route: ORAL, Dose: 0, 5 PPM (HG) IN DRINKING WATER FOR 70 D THEN 1 PPM (HG) FOR DURATION OF STUDY (STUDY DURATION: LIFE SPAN)",inactive; negative
same,carcinogen call,"Species: MOUSE, Strain/Sex: SWISS/MALE, Route: ORAL, Dose: 0, 5 PPM (HG) IN DRINKING WATER FOR 70 D THEN 1 PPM (HG) FOR DURATION OF STUDY (STUDY DURATION: LIFE SPAN)",inactive; negative
c1ccc2c(c1)cc1ccc3cccc4c5ccccc5c2c1c34,carcinogen call,"Species: MOUSE, Route: DERMAL, Tumor Site: Type of Lesion: INTEGUMENTARY SYSTEM (SKIN)",active; positive
same,carcinogen call,"Species: MOUSE, Route: SUBCUTANEOUS, Tumor Site: Type of Lesion: INJECTION SITE",active; positive
same,carcinogen call,"Species: MOUSE, Strain/Sex: SWISS/FEMALE, Route: DERMAL, Dose: 0, 1, 4, 8 NMOL IN 100 µL ACETONE 2/WK FOR 40 WK (STUDY DURATION: 48 WK), Dose: 0, 1, 4, 8 NMOL IN 100 µL ACETONE 2/WK FOR 40 WK (STUDY DURATION: 48 WK), Tumor Site: Type of Lesion: SKIN: TUMORS",active; positive
same,carcinogen call,"Species: Mouse, Strain/Sex: B6129SF1/J v 129S1/SvImJ crosses, Route: Transplacental, Dose: 15 mg/kg bw in corn oil to dams on day 18 of gestation, study duration 10 months, Tumor Site: Type of Lesion: Lung and liver tumors",active; positive
same,carcinogen call,"Species: Mouse, Strain/Sex: B6129SF1x129S1/Svlmj/Male and female (215 in 4 groups), Route: In utero, nursing, or in utero and nursing, Dose: 15 mg/kg, gavage to pregnant B6129SF1 females, once on day 17 of pregnancy (Study duration 10 months from birth), Tumor Site: Type of Lesion: Lung",active; positive (surviving offspring exhibited 100% incidence with multiplicity of appr
same,carcinogen call,"Species: RAT, Strain/Sex: SPRAGUE-DAWLEY/FEMALE, Route: INJECTION, Dose: 0, 0.25, 1 UMOL PER MAMMARY GLAND (STUDY DURATION: 24 WK), Dose: 0, 0.25, 1 UMOL PER MAMMARY GLAND (STUDY DURATION: 24 WK), Tumor Site: Type of Lesion: MAMMARY GLAND: TUMOR",active; positive
CN(N=O)C1CCCCC1,carcinogen call,"Species: HAMSTER, Strain/Sex: SYRIAN/FEMALE, Route: GAVAGE, Dose: 0, 2.5 MG/KG 1/WK FOR 50 WK (TOTAL DOSE: 0; 0.9 MMOL) (STUDY DURATION: LIFETIME), Dose: 0, 2.5 MG/KG 1/WK FOR 50 WK (TOTAL DOSE: 0; 0.9 MMOL) (STUDY DURATION: LIFETIME)",inactive; negative
same,carcinogen call,"Species: HAMSTER, Strain/Sex: SYRIAN/MALE, Route: GAVAGE, Dose: 0, 2.5 MG/KG 1/WK FOR 50 WK (TOTAL DOSE: 0; 0.9 MMOL) (STUDY DURATION: LIFETIME), Dose: 0, 2.5 MG/KG 1/WK FOR 50 WK (TOTAL DOSE: 0; 0.9 MMOL) (STUDY DURATION: LIFETIME), Tumor Site: Type of Lesion: LUNG: ALVEOLAR/BRONCHIAL ADENOMA, ADENOSQUAMOUS CARCINOMA",active; positive
COc1cc2c(c3oc(=O)c4c(c13)CC[C@@H]4O)[C@@H]1C=CO[C@@H]1O2,carcinogen call,"Species: FISH, Strain/Sex: SHASTA RAINBOW TROUT/MALE, FEMALE, Route: IMMERSION, Dose: 0, 0.01, 0.025, 0.05, 0.1, 0.25, 0.5 PPM SOLUTION IN WATER FOR 1 HR EXPOSURE OF EMBRYOS (STUDY DURATION: 13 MO), Dose: 0, 0.01, 0.025, 0.05, 0.1, 0.25, 0.5 PPM SOLUTION IN WATER FOR 1 HR EXPOSURE OF EMBRYOS (STUDY DURATION: 13 MO), Tumor Site: Type of Lesion: LIVER: TUMORS",active; positive
same,carcinogen call,"Species: FISH, Strain/Sex: SHASTA RAINBOW TROUT/MALE, FEMALE, Route: ORAL, Dose: 0, 4, 8, 16, 32, 64 PPB IN DIET FOR 2 WK FOLLOWED BY CONTROL DIET FOR THE DURATION OF STUDY (STUDY DURATION: 9 MO), Dose: 0, 4, 8, 16, 32, 64 PPB IN DIET FOR 2 WK FOLLOWED BY CONTROL DIET FOR THE DURATION OF STUDY (STUDY DURATION: 9 MO), Tumor Site: Type of Lesion: LIVER: TUMOR",active; positive
same,carcinogen call,"Species: RAT, Strain/Sex: F344/MALE, Route: ORAL, Dose: 50, 200 PPB IN DIET 2/WK FOR 12 MO, Tumor Site: Type of Lesion: LIVER: HEPATOCELLULAR CARCINOMA",active; positive
same,carcinogen call,"Species: TROUT, Strain/Sex: MT. SHASTA RAINBOW, Route: ORAL, Dose: 29 PPB IN DIET FOR 12 MO, Tumor Site: Type of Lesion: LIVER: HEPATOCELLULAR CARCINOMA",active; positive
Cc1c(N)nc([C@H](CC(N)=O)NC[C@H](N)C(N)=O)nc1C(=O)N[C@H](C(=O)N[C@H](C)[C@@H](O)[C@H](C)C(=O)N[C@H](C(=O)NCCc1nc(-c2nc(C(=O)NCCCN[C@@H](C)c3ccccc3)cs2)cs1)[C@@H](C)O)[C@@H](O[C@@H]1O[C@@H](CO)[C@@H](O)[C@H](O)[C@@H]1O[C@H]1O[C@H](CO)[C@@H](O)[C@H](OC(N)=O)[C@@H]1O)c1cnc[nH]1,carcinogen call,"Species: RAT, Strain/Sex: SPRAGUE-DAWLEY/FEMALE, Route: SUBCUTANEOUS, Dose: 0, 0.32, 0.63, 1.25, 2.50, 5.0 MG/KG IN SALINE 1/WK FOR 10 WK THEN 1/2 WK FOR 12 WK, 19 WK OR LIFETIME (STUDY DURATION:, Dose: 0, 0.32, 0.63, 1.25, 2.50, 5.0 MG/KG IN SALINE 1/WK FOR 10 WK THEN 1/2 WK FOR 12 WK, 19 WK OR LIFETIME (STUDY DURATION:, Tumor Site: Type of Lesion: KIDNEY: MALIGNANT OR BENIGN TUMOR, INJECTION SITE: MALIGNANT TUMOR",active; positive
same,carcinogen call,"Species: RAT, Strain/Sex: SPRAGUE-DAWLEY/MALE, Route: SUBCUTANEOUS, Dose: 0, 0.32, 0.63, 1.25, 2.50, 5.0 MG/KG IN SALINE 1/WK FOR 10 WK THEN 1/2 WK FOR 12 WK, 19 WK OR LIFETIME (STUDY DURATION:, Dose: 0, 0.32, 0.63, 1.25, 2.50, 5.0 MG/KG IN SALINE 1/WK FOR 10 WK THEN 1/2 WK FOR 12 WK, 19 WK OR LIFETIME (STUDY DURATION:, Tumor Site: Type of Lesion: KIDNEY: MALIGNANT OR BENIGN TUMOR, INJECTION SITE: MALIGNANT TUMOR",active; positive
N#Cc1ccc(C/C(=N\NC(=O)Nc2ccc(OC(F)(F)F)cc2)c2cccc(C(F)(F)F)c2)cc1,carcinogen call,"Species: Mouse, Strain/Sex: CD-1/Female (65/Group), Route: Oral, Dose: 0 (aqueous carboxymethylcellulose), 100, 250, 1000 mg/kg/day of 96.3% metaflumizone by gavage for 18 mo, study duration, Dose: 0 (aqueous carboxymethylcellulose), 100, 250, 1000 mg/kg/day of 96.3% metaflumizone by gavage for 18 mo, study duration",inactive; negative
same,carcinogen call,"Species: Mouse, Strain/Sex: CD-1/Male (65/Group), Route: Oral, Dose: 0 (aqueous carboxymethylcellulose), 100, 250, 1000 mg/kg/day of 96.3% metaflumizone by gavage for 18 mo, study duration, Dose: 0 (aqueous carboxymethylcellulose), 100, 250, 1000 mg/kg/day of 96.3% metaflumizone by gavage for 18 mo, study duration",inactive; negative
same,carcinogen call,"Species: Rat, Strain/Sex: Sprague-Dawley/Female (80/Group), Route: Oral, Dose: 0 (aqueous carboxymethylcellulose), 30, 60, 300 mg/kg/day (adjusted to 200 mg after 2 weeks of treatment) of 96.3% metaf, Dose: 0 (aqueous carboxymethylcellulose), 30, 60, 300 mg/kg/day (adjusted to 200 mg after 2 weeks of treatment) of 96.3% metaf",inactive; negative
same,carcinogen call,"Species: Rat, Strain/Sex: Sprague-Dawley/Male (80/Group), Route: Oral, Dose: 0 (aqueous carboxymethylcellulose), 30, 60, 300 mg/kg/day of 96.3% metaflumizone by gavage for 24 mo, study duration 24, Dose: 0 (aqueous carboxymethylcellulose), 30, 60, 300 mg/kg/day of 96.3% metaflumizone by gavage for 24 mo, study duration 24",inactive; negative
C=C(C)[C@H]1CC=C(C)C(=O)C1,carcinogen call,"Species: MOUSE, Strain/Sex: B6C3F1/FEMALE, Route: GAVAGE, Dose: 0, 375, 750 MG/KG IN CORN OIL 5 D/WK FOR 103 WK (STUDY DURATION: 104 WK), Dose: 0, 375, 750 MG/KG IN CORN OIL 5 D/WK FOR 103 WK (STUDY DURATION: 104 WK)",inactive; negative
same,carcinogen call,"Species: MOUSE, Strain/Sex: B6C3F1/MALE, Route: GAVAGE, Dose: 0, 375, 750 MG/KG IN CORN OIL 5 D/WK FOR 103 WK (STUDY DURATION: 104 WK), Dose: 0, 375, 750 MG/KG IN CORN OIL 5 D/WK FOR 103 WK (STUDY DURATION: 104 WK), Tumor Site: Type of Lesion: KIDNEY: TUBULAR CELL ADENOCARCINOMA",inactive; negative
